Measured values taken from US6773733B2, “Structured particulate systems” (Loders Croklaan USA LLC, priority 2001, dated 2004).

Tests used:
Assay type in all cases: physicochemical
[1] = Comparative homogeneity test in vegetable oil; conditions: added to 1 kg of vegetable oil, mixed for 5 minutes, continuous visual inspection
Experimental: Comparative homogeneity test of structured particulate Folic Acid with non-structured active particulate component: 1. 10 milligrams of non-structured active particulate component Folic Acid is added to 1 kg of vegetable oil and 40 milligrams of structured particulate Folic Acid (25%) to another 1 kg of vegetable oil. 2. Each sample is mixed for 5 minutes with continuous visual inspection for homogeneity.

[2] = Mean weight diameter by screen analysis; conditions: weight fraction at screen multiplied by screen opening, summed for all screen sizes
Experimental: Folic acid is used as the active component It has a mean weight diameter of 246 microns and a loose bulk density of 0.2 g/cc. The mean weight diameters is calculated as follows: weight fraction at screen multiplied by screen opening (microns), summed for all screen sizes.

Loose bulk density = test: Loose bulk density
Excerpt: Loose bulk density being measured by measuring the volume of a known mass powder sample, that has passed through a screen into a gradulated cylinder. The procedure is described in USP<616<Bulk Density and Tapped Density.

- mean weight diameter [2]: 246 microns
- loose bulk density (Loose bulk density): 0.2 g/cc
Compound: Nc1nc2ncc(CNc3ccc(C(=O)N[C@@H](CCC(=O)O)C(=O)O)cc3)nc2c(=O)[nH]1 [Folic acid]
- homogeneity / dispersion by visual inspection [1]: clumps together and sticks to the container walls
